Measured values reported in ChEMBL document CHEMBL3085659, “Synthesis, antiproliferative and apoptosis-inducing activity of thiazolo[5,4-d]pyrimidines” (Eur J Med Chem, 2013).

Legend:
Type in all cases: functional
[1] = system: PC-3; assay: Antiproliferative activity against human PC3 cells assessed as growth inhibition at 10 uM after 48 hrs by SRB assay; details: PC-3, 48 h, read-out: GI
[2] = system: HL-60; assay: Antiproliferative activity against human HL60 cells assessed as growth inhibition at 10 uM after 48 hrs by SRB assay; details: HL-60, 48 h, read-out: GI
[3] = system: A549; assay: Antiproliferative activity against human A549 cells assessed as growth inhibition at 10 uM after 48 hrs by SRB assay; details: A549, 48 h, read-out: GI
[4] = system: A-431; assay: Antiproliferative activity against human A431 cells assessed as growth inhibition at 10 uM after 48 hrs by SRB assay; details: A-431, 48 h, read-out: GI
[5] = Antiproliferative activity against human MIAPaCa2 cells assessed as growth inhibition at 10 uM after 48 hrs by SRB assay; details: MIA PaCa-2, 48 h, read-out: GI
[6] = system: T98G; assay: Antiproliferative activity against human T98G cells assessed as growth inhibition at 10 uM after 48 hrs by SRB assay; details: read-out: GI
[7] = system: T47D; assay: Antiproliferative activity against human T47D cells assessed as growth inhibition at 10 uM after 48 hrs by SRB assay; details: read-out: GI
[8] = Antiproliferative activity against human NCI-H322 cells assessed as growth inhibition at 10 uM after 48 hrs by SRB assay; details: NCI-H322, 48 h, read-out: GI

| Structure (SMILES) | inhibition of growth at 10 µM [1] | inhibition of growth at 10 µM [2] | inhibition of growth at 10 µM [3] | inhibition of growth at 10 µM [4] | inhibition of growth at 10 µM [5] | inhibition of growth at 10 µM [6] | inhibition of growth at 10 µM [7] | inhibition of growth at 10 µM [8] |
| --- | --- | --- | --- | --- | --- | --- | --- | --- |
| Clc1ccc(Nc2nc3c(N4CCCCC4)ncnc3s2)cc1 | 2% | 21% | 57% | 22% | 1% | 45% | 8% | 63% |
| c1ccc(Nc2nc3c(N4CCC(N5CCCCC5)CC4)ncnc3s2)cc1 | 34% | 39% | 19% | 10% | 23% | 13% | 21% | 30% |
| CN1CCN(c2ncnc3sc(Nc4ccccc4)nc23)CC1 | 29% | 12% | 19% | 19% | 10% | 36% | 13% | 39% |
| c1ccc(Nc2nc3c(N4CCNCC4)ncnc3s2)cc1 | 35% | 39% | 19% | 18% | 30% | 12% | 21% | 35% |
| COc1ccc(Nc2nc3c(Cl)ncnc3s2)cc1 | 26% | 31% | 0% | 9% | 0% | 4% | 19% | 25% |
| Clc1ccc(Nc2nc3c(N4CCCC4)ncnc3s2)cc1 | 31% | 41% | 26% | 17% | 37% | 6% | 38% | 27% |
| Clc1ncnc2sc(Nc3ccccc3)nc12 | 20% | 21% | 3% | 1% | 4% | 1% | 22% | 0% |
| c1ccc(Nc2nc3c(N4CCCCC4)ncnc3s2)cc1 | 2% | 22% | 54% | 22% | 17% | 42% | 31% | 41% |
| CN(C)c1ncnc2sc(Nc3ccc(Cl)cc3)nc12 | 28% | 39% | 23% | 0% | 28% | 23% | 21% | 6% |
